Key:
COX-2 = biological target: T1, COX-2 (Homo sapiens, UniProt P35354); settings: specificity for COX-2 over COX-1, background statement; cited from earlier work
T1 sequence (P35354 18-604): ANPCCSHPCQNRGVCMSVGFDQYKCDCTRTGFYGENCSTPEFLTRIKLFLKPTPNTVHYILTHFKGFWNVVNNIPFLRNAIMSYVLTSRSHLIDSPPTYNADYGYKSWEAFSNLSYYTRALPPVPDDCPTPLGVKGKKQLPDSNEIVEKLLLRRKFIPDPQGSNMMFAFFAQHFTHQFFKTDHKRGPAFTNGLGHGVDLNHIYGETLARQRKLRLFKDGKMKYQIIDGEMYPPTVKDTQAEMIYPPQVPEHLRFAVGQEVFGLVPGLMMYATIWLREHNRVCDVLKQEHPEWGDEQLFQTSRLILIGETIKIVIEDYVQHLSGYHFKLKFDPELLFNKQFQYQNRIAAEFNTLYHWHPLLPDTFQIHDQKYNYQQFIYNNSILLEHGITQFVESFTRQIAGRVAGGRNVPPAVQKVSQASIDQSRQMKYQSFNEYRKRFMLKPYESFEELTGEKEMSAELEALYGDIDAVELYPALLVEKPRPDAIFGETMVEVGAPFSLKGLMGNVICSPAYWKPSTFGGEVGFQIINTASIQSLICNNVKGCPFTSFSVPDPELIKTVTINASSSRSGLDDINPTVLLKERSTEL

COX-1 enzyme (ovine) = biological target: T2, COX-1 enzyme (ovine) (Ovis aries, UniProt P05979); assay: COX-1 enzyme inhibition (COX-1 synthesis of PGE2); format: biochemical
T2 construct: purchased Cayman Chemical 60100
T2 sequence (P05979 25-600): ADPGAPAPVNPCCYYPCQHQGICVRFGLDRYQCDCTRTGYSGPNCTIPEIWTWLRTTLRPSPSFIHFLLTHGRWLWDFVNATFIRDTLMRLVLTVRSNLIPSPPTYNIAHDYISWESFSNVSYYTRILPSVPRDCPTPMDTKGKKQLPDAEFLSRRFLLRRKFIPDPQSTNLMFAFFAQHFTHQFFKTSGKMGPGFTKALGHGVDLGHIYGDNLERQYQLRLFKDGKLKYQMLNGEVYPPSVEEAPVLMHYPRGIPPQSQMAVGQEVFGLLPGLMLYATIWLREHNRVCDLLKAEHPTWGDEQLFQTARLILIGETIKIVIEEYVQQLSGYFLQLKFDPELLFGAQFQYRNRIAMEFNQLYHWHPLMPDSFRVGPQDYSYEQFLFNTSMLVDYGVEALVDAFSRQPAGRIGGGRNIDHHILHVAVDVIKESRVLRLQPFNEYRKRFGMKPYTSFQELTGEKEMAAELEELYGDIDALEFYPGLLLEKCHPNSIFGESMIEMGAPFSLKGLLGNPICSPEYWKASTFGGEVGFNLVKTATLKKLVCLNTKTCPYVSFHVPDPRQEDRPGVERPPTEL
Protocol: Determination of COX-1 Enzyme Inhibition by Hops Extract—The ability of a test material to inhibit COX-1 synthesis of PGE2 was determined essentially as described by Noreen, Y., et al. (J. Nat. Prod. 61, 2-7, 1998). […]

Row | SMILES | reported COX-2 specificity (COX-2) | IC50 (COX-1 enzyme (ovine))
1 | CC(=O)Oc1ccccc1C(=O)O [aspirin] | 0.6 | 
2 | COc1cc(/C=C/C(=O)CC(=O)/C=C/c2ccc(O)c(OC)c2)ccc1O [curcumin] |  | 27.1 µM
